# Experimental data reported in patent US20250230226A1, “PLXDC1/PLXDC2 ACTIVATORS AND THEIR USE IN THE TREATMENT OF BLOOD VESSEL DISORDERS” (THE REGENTS OF THE UNIVERSITY OF CALIFORNIA, priority 2019, published 2025).
# Experiments:
# [1] = system: CT26.CL25 colon cancer tumor endothelial cells; test: Colon CT26 ex vivo model of tumor angiogenesis; assay type: cell-based, mouse; conditions: for 48 hrs (morphology observations after 48 hours): Conc. 40 μm; for cytotoxicity at 40 µM: Mus musculus, Endothelial cell, 48 h, read-out: Cell death
# Procedure: An ex vivo tumor angiogenesis model was developed to test the efficacy of anti-cancer candidate agents. The following protocol describes the Ex Vivo Tumor Angiogenesis Model.
# • 1. The day before the experiment, all necessary tools were sprayed with 70% ethanol and sterilized under UV light overnight, including blade, dissecting and micro-dissecting scissors and […]. 24-well dishes were placed at 4° C. to pre-chill plates and Matrigel was thawed, 24 hours before tumor dissection. • 2. 70% ethanol was sprayed on working bench. Two sterile petri dishes were prepared with 10 ml sterile PBS. The following steps 3 and 4 are necessary for mouse tumor models. For fresh human tumor, steps 3 and 4 are skipped. • 3. The tumor-bearing mice were euthanized. 70% ethanol was sprayed on the mouse and the tumor was removed using sterilized dissecting tools (avoid the fur). The tumor was rinsed in petri dish with sterile PBS to remove ethanol and fur. The tumor was transferred to a new petri dish with PBS for dissection. The dish is placed on ice. • 4. Pre-chilled sterile pipet tips were used to seed regular Matrigel in 24 well plates on ice. Matrigel (30 μl) was dropped in the middle of each well without touching the edge of the well (avoid introducing bubbles if possible). • 5. The tumor was cut in halves using the sterile blade. Healthy tumor tissue that is not necrotic and is within the tumor capsule was identified and isolated. The healthy tumor tissue was cut into small pieces. For instance, a suitable size for the tumor tissue is 0.5 mm (H)×0.5 mm (L)×0.3 mm (D) with a total volume of 0.075 mm^3. • 6. Each tumor piece was gently transferred and embedded in the Matrigel drop in the 24-well plate. The embedded piece was placed in the bottom and middle of each Matrigel drop. The plate was kept on ice all the time. • 7. After seeding the tumor pieces, plates were incubated in a 37° C. cell culture incubator without medium for 10 minutes in order for the Matrigel to solidify. • 8. Endothelial Growth Medium (0.5 ml) was added to each well and incubated at 37° C. with 5% CO2. Treatment was not added until the new endothelial cells was grown out of the tumor or were larger than 3 mm in diameter. This usually takes 4 days for the LL2 Lewis lung cancer model and 7 days for the CT26 colon cancer model. For human tumor models, the growth time is typically 2-3 weeks, depending on the tumor type. Media was changed every 4 days during prolonged culture. Typically, when the tumor tissue grows to 2 mm in diameter, it was good for drug testing. A size of about 3 mm in diameter can make visualization easier. • 9. When the assay was ready to be analyzed for cell death (e.g., 48 hours after drug addition), the dye mixture was prepared by mixing 6 μl of green dye to stain live cells (5 mg/ml Fluorescein diacetate or FDA in DMSO) with 30 μl of red dye (2.5 mg/ml Propidium iodide or PI in PBS) to stain dead cells in an Eppendorf tube. The FDA dye needs to be stored frozen in a −20° C. freezer because it has a labile ester bond. • 10. 1 μl of the dye mixture was added to each well of the 24-well dish. It is usually preferred to do one 24-well dish at a time given the amount of time needed to take pictures (the green dye is not as stable in the cells in the long term). • 11. The dish was gently rocked a few times to mix the dye with the media in the wells and incubate the dish at 37° C. for 10 min (too long incubation can make the green signal too intense). • 12. Each well was washed with 0.5 ml of sterile PBS and then 0.5 ml of phenol red free SFM was added to each well. Alternatively 0.5 ml of regular Endothelial Cell Growth Media can be added to each well if this well needs to be continuously maintained after the experiment. • 13. An inverted microscope using the 2× objective lens was used to observe morphological changes in the experimental wells. • 14. […]
# [2] = system: LL/2 lung cancer tumor endothelial cells; test: Lung LL2 ex vivo model of tumor angiogenesis; assay type: cell-based, mouse; conditions: for Cell death / 48 hrs (morphology observations): 40 μm; for Cell death: drug treatment for two days, ratio of red area to total endothelial cell area; for 48 hrs (morphology observations): LL/2 tumor endothelial cells; for cytotoxicity at 40 µM: Mus musculus, Endothelial cell, 48 h, read-out: Cell death
# Summary of the method: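 Live/dead imaging with FDA and PI, taken e.g. 48 h post-drug under fixed channel settings, measures treatment effects on endothelial cells sprouting from Lewis lung tumor explants. Explants were seeded in Matrigel drops and grown ~4 days in endothelial growth medium, 37 °C, 5% CO2, before dosing.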
Structure (SMILES),48 hrs (morphology observations after 48 hours) [1],cytotoxicity at 40 µM [1],Cell death [2],48 hrs (morphology observations) [2],cytotoxicity at 40 µM [2]
CCc1ccc(S(=O)(=O)c2cnc3ccc(OC(F)(F)F)cc3c2N2CCCN(CC(=O)O)CC2)cc1 [Compound 42],0,0%,30%,,
COc1ccc(S(=O)(=O)c2cnc3ccc(OC(F)(F)F)cc3c2N2CCC(N3CCCCC3)CC2)cc1 [Compound 43],*** (100% of endothelial cells vesicularize in cell shape),90%,100%,*** (more than 50% but less than 100% of endothelial cells vesicularize in cell shape),
COc1ccc(S(=O)(=O)c2cnc3ccc(OC(F)(F)F)cc3c2N2CCC(O)CC2)cc1 [Compound 44],0,0%,50%,,
CCc1ccc(S(=O)(=O)c2cnc3ccc(OC(F)(F)F)cc3c2N2CCN(c3ccc(C#N)cc3)CC2)cc1 [Compound 45],0,0%,,,10%
CCc1ccc(S(=O)(=O)c2cnc3ccc(OC(F)(F)F)cc3c2N2CCC(N3CCCC3)CC2)cc1 [Compound 46],**** (100% of endothelial cells vesicularize in cell shape and look flattened in morphology (indicating disintegration of the cell body)),100%,,**** (100% of endothelial cells vesicularize in cell shape and look flattened in morphology (indicating disintegration of the cell body)),100%
CCOC(=O)C1CCN(c2c(S(=O)(=O)c3ccc(CC)cc3)cnc3ccc(OC(F)(F)F)cc23)CC1 [Compound 47],0,10%,50%,,
CCc1ccc(S(=O)(=O)c2cnc3ccc(OC(F)(F)F)cc3c2N2CCC(CO)CC2)cc1 [Compound 48],0,10%,60%,,
CCc1ccc(S(=O)(=O)c2cnc3ccc(OC(F)(F)F)cc3c2N(C)Cc2ccccc2)cc1 [Compound 49],0,10%,30%,,
CCc1ccc(S(=O)(=O)c2cnc3ccc(OC(F)(F)F)cc3c2NN2CCN(C)CC2)cc1 [Compound 50],*** (100% of endothelial cells vesicularize in cell shape),100%,90%,*** (more than 50% but less than 100% of endothelial cells vesicularize in cell shape),
CCc1ccc(S(=O)(=O)c2cnc3ccc(OC(F)(F)F)cc3c2-n2cncn2)cc1 [Compound 51],*** (100% of endothelial cells vesicularize in cell shape),20%,100%,**** (100% of endothelial cells vesicularize in cell shape and look flattened in morphology (indicating disintegration of the cell body)),
CCc1ccc(S(=O)(=O)c2cnc3ccc(OC(F)(F)F)cc3c2N2CCC3(CC2)OCCO3)cc1 [Compound 52],0,0%,50%,,
N#Cc1ccc(S(=O)(=O)c2cnc3ccc(OC(F)(F)F)cc3c2N2CCC(N3CCCCC3)CC2)cc1 [Compound 54],0,10%,50%,,
CCc1ccc(S(=O)(=O)c2cnc3ccc(CC#N)cc3c2N2CCC(N3CCCCC3)CC2)cc1 [Compound 55],0,50%,70%,,
COc1ccc(S(=O)(=O)c2cnc3ccc(OC(F)(F)F)cc3c2N2CCC(N3CCCCC3)CC2)cc1OC [Compound 56],0,30%,20%,* (50% or less of cells vesicularize in cell shape),
COc1ccc(S(=O)(=O)c2cnc3ccc(OC(F)(F)F)cc3c2N2CCCN(C)CC2)cc1OC [Compound 57],* (50% or less of cells vesicularize in cell shape),60%,40%,0,
COc1ccc(S(=O)(=O)c2cnc3ccc(OC(F)(F)F)cc3c2N2CCC(O)CC2)cc1OC [Compound 58],* (50% or less of cells vesicularize in cell shape),50%,,0,50%
O=[N+]([O-])c1ccc(S(=O)(=O)c2cnc3ccc(OC(F)(F)F)cc3c2N2CCC(N3CCCCC3)CC2)cc1 [Compound 59],0,50%,40%,,
O=[N+]([O-])c1ccc(S(=O)(=O)c2cnc3ccc(OC(F)(F)F)cc3c2N2CCC(O)CC2)cc1 [Compound 61],0,20%,50%,,
CCOC(=O)c1ccc2ncc(S(=O)(=O)c3ccc(CC)cc3)c(N3CCC(O)CC3)c2c1 [Compound 62],** (more than 50% but less than 100% of endothelial cells vesicularize in cell shape),70%,30%,*** (more than 50% but less than 100% of endothelial cells vesicularize in cell shape),
CCOC(=O)c1ccc2ncc(S(=O)(=O)c3ccc(CC)cc3)c(N3CCCN(C)CC3)c2c1 [Compound 63],*** (100% of endothelial cells vesicularize in cell shape),70%,50%,,
CCOC(=O)c1ccc2ncc(S(=O)(=O)c3ccc(CC)cc3)c(N3CCC(N4CCCCC4)CC3)c2c1 [Compound 64],*** (100% of endothelial cells vesicularize in cell shape),100%,,*** (more than 50% but less than 100% of endothelial cells vesicularize in cell shape),100%
CCc1ccc(S(=O)(=O)c2cnc3ccc(OC(F)(F)F)cc3c2N2CCC(O)(c3ccc4c(c3)OCO4)CC2)cc1 [Compound 147],0,0%,,,
CCOC(=O)c1ccc2ncc(S(=O)(=O)c3ccc(CC)cc3)c(N3CCC(O)(c4ccc(OC)cc4)CC3)c2c1 [Compound 148],0,0%,,,
CCOC(=O)c1ccc2ncc(S(=O)(=O)c3ccc(CC)cc3)c(N3CCC(O)(c4cccc(OC)c4)CC3)c2c1 [Compound 149],* (50% or less of cells vesicularize in cell shape),20%,,,
CCc1ccc(S(=O)(=O)c2cnc3ccc(OC(F)(F)F)cc3c2N2CCC(O)(c3cccc(OC)c3)CC2)cc1 [Compound 150],0,10%,,,
COc1ccc(S(=O)(=O)c2cnc3ccc(SC)cc3c2N2CCC(N3CCC(O)CC3)CC2)cc1OC [Compound 153],* (50% or less of cells vesicularize in cell shape),20%,,,
CCCCOc1ccc(S(=O)(=O)c2cnc3ccc(SC)cc3c2N2CCCN(CCN3CCCC3)CC2)cc1 [Compound 207],**** (100% of endothelial cells vesicularize in cell shape and look flattened in morphology (indicating disintegration of the cell body)),100%,,,
